Like-named read-outs stand apart in the source and are kept apart here. Where a SMILES comes first, the peptide text is derived from it. [ ]: non-standard residue; d: D form. N(2-ethylhexyl)Gly = CCCCC(CC)CNCC(=O)O; Gly(N-dodecyl) = CCCCCCCCCCCCNCC(=O)O; N(CH(CH2OH)2)Gly = O=C(O)CNC(CO)CO; NHexGly = CCCCCCNCC(=O)O
Assays:
[1] = Percent encapsulated mRNA, RiboGreen assay; type: physicochemical; details: Table 5; delivery vehicle comprising the peptoid, Formulation D22, fLuc mRNA
Summary of the method: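 Modified RiboGreen fluorescence assay on Fluc mRNA formulations diluted to 500 ng/ml in Tris-EDTA. Samples were read with and without Triton X-100 lysis (2% for 10 min in one protocol). Percent encapsulation was derived from the fluorescence ratio of intact versus lysed particles.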

[2] = Apparent particle pKa, TNS fluorescence assay; type: physicochemical; details: Table 5; apparent particle pKa of delivery vehicle
Procedure: The apparent particle pKa was assessed by a TNS fluorescence assay. Briefly, particles were diluted to 130 uM total lipid in TNS buffer ranging in pH 3-11 for 10 minutes with […] of TNS probe. The fluorescence was measured at room temperature in a plate reader ex 320/em 445. Fluorescence intensity was normalized to the minimal and maximal values and the pKa was determined by a 3 parameter fit to determine the half maximum of the curve.

[3] = RBC hemolysis as metric for fusogenicity; type: cell-based; details: sheep red blood cells (RBCs), 5% v/v, Table 5, delivery vehicle, 37° C. 45 min
Summary of the method: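 Sheep RBCs at 5% v/v in 20 mM citrate/140 mM NaCl pH 5.5 or PBS, exposed to LNPs at […] in well, 37 °C for 45 min. Supernatant absorbance at 425 nm; % hemolysis normalized to 2% Triton full lysis and buffer-only control.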

[4] = pH 5, read-out: Hemolysis at pH 5
[5] = pH 7, read-out: Hemolysis at pH 7

SMILES	% Encapsulation [1]	pKa (TNS) [2]	hemolysis at 45 min, 150 mM total lipid [3, 4]	hemolysis at 45 min, 150 mM total lipid [3, 5]
CCCCCCN(CC(N)=O)C(=O)CN(CC(CC)CCCC)C(=O)CN(CC(CC)CCCC)C(=O)CN(CCCCCC)C(=O)CN(CC(CC)CCCC)C(=O)CN(CC(CC)CCCC)C(=O)CNC(CO)CO (stereo not shown) [Compound 12] (H-[N(CH(CH2OH)2)Gly][N(2-ethylhexyl)Gly][N(2-ethylhexyl)Gly][NHexGly][N(2-ethylhexyl)Gly][N(2-ethylhexyl)Gly][NHexGly]-NH2)	97.4%	6.018	52.1%	1.5%
CCCCCCCCCCCCN(CC(=O)N(CC(=O)N(CC(=O)N(CCCCCCCCCCCC)CC(=O)N(CC(=O)N(CC(N)=O)CC(CC)CCCC)CC(CC)CCCC)CC(CC)CCCC)CC(CC)CCCC)C(=O)CNC(CO)CO (stereo not shown) [Compound 31] (H-[N(CH(CH2OH)2)Gly][Gly(N-dodecyl)][N(2-ethylhexyl)Gly][N(2-ethylhexyl)Gly][Gly(N-dodecyl)][N(2-ethylhexyl)Gly][N(2-ethylhexyl)Gly]-NH2)	86.9%	6.523	5.8%	2%
CCCCCCCCCCCCN(CC(=O)N(CC(N)=O)CC(CC)CCCC)C(=O)CN(CCCCCC)C(=O)CN(CC(CC)CCCC)C(=O)CN(CCCCCCCCCCCC)C(=O)CN(CCCCCC)C(=O)CNC(CO)CO (stereo not shown) [Compound 34] (H-[N(CH(CH2OH)2)Gly][NHexGly][Gly(N-dodecyl)][N(2-ethylhexyl)Gly][NHexGly][Gly(N-dodecyl)][N(2-ethylhexyl)Gly]-NH2)	71.2%	6.374	11.8%	27.6%
CCCCCCCCCCCCN(CC(=O)N(CC(=O)N(CC(=O)N(CCCCCCCCCCCC)CC(=O)N(CC(N)=O)CC(CC)CCCC)CC(CC)CCCC)CC(CC)CCCC)C(=O)CN(CC(CC)CCCC)C(=O)CNC(CO)CO (stereo not shown) [Compound 41] (H-[N(CH(CH2OH)2)Gly][N(2-ethylhexyl)Gly][Gly(N-dodecyl)][N(2-ethylhexyl)Gly][N(2-ethylhexyl)Gly][Gly(N-dodecyl)][N(2-ethylhexyl)Gly]-NH2)	94.2%	6.068	4.5%	2.9%

From patent publication US20260083769A1, “2-Aminopropane-1,3-Diol-Capped Cationic Peptoids for Nucleic Acid Delivery” (NUTCRACKER THERAPEUTICS, INC., priority 2022, published 2026)
